Measured values taken from ChEMBL document CHEMBL1201862, “PubChem BioAssay data set” (2004).
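Where inhibition never reached the appropriate level, the endpoint shown equals the highest concentration tested. Otherwise, values were interpolated linearly from a five-concentration, 48-hour dose response in 96-well plates. At the GI50, growth is halved.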 Active and inactive are the calls of the source. Cut-off read from the data, not from the text of the source: active = GI50 up to about 1.1 µM and inactive = higher.

Key:
Test in all cases: DTP human tumour cell line panel, 48 h
[1] = test system: BT-549
[2] = test system: KM12
[3] = test system: SW-620
[4] = test system: 786-0
[5] = test system: M14
[6] = test system: NCI-H522
[7] = test system: HOP-92
[8] = test system: ACHN
[9] = test system: SF-539
[10] = test system: HOP-62
[11] = test system: NCI-H226
[12] = test system: MDA-MB-435
[13] = test system: IGROV-1
[14] = test system: U-251
[15] = test system: MOLT-4
[16] = test system: SK-MEL-28
[17] = test system: UACC-62
[18] = test system: NCI-H460
[19] = test system: DU-145
[20] = test system: SNB-75
[21] = test system: RPMI-8226
[22] = test system: HT-29
[23] = test system: HCT-116
[24] = test system: SNB-19
[25] = test system: A549
[26] = test system: UACC-257
[27] = test system: T47D
[28] = test system: SR
[29] = test system: COLO 205
[30] = test system: NCI-H23
[31] = test system: CAKI-1
[32] = test system: SF-295
[33] = test system: SK-MEL-5
[34] = test system: OVCAR-5
[35] = test system: Hs-578T
[36] = test system: HCC 2998
[37] = test system: CCRF-CEM
[38] = test system: K562
[39] = test system: MDA-N
[40] = test system: NCI/ADR-RES
[41] = test system: SN12C
[42] = test system: OVCAR-4
[43] = test system: SF-268
[44] = test system: OVCAR-8
[45] = test system: UO-31
[46] = test system: PC-3
[47] = test system: HL-60
[48] = test system: EKVX
[49] = test system: Malme-3M
[50] = test system: MCF7
[51] = test system: MDA-MB-231
[52] = test system: OVCAR-3
[53] = test system: LOX IMVI
[54] = test system: TK-10
[55] = test system: RXF 393
[56] = test system: A498
[57] = test system: SK-OV-3
[58] = test system: SK-MEL-2
[59] = test system: HCT-15

With `C[n+]1[n-]o/c(=N\N=O)c1-c1cc(-c2/c(=N/N=O)o[n-][n+]2C)cc(-c2/c(=N\N=O)o[n-][n+]2C)c1` the GI50 [1] was > 100 µM (inactive), the GI50 [2] was > 100 µM (inactive) and the GI50 [3] was > 100 µM (inactive). For the same compound, the GI50 [4] was > 100 µM (inactive), the GI50 [5] was > 100 µM (inactive) and the GI50 [6] was > 100 µM (inactive). The GI50 [7] was > 100 µM (inactive), the GI50 [8] was > 100 µM (inactive) and the GI50 [9] was > 100 µM (inactive). The GI50 [10] was > 100 µM (inactive), the GI50 [11] was > 100 µM (inactive) and the GI50 [12] was > 100 µM (inactive). For the same compound, the GI50 [13] was > 100 µM (inactive), the GI50 [14] was > 100 µM (inactive) and the GI50 [15] was > 100 µM (inactive). The GI50 [16] was > 100 µM (inactive), the GI50 [17] was > 100 µM (inactive) and the GI50 [18] was > 100 µM (inactive). The GI50 [19] was > 100 µM (inactive), the GI50 [20] was 68.1 µM (inactive) and the GI50 [21] was > 100 µM (inactive). The GI50 [22] was > 100 µM (inactive), the GI50 [23] was > 100 µM (inactive) and the GI50 [24] was > 100 µM (inactive). The GI50 [25] was > 100 µM (inactive), the GI50 [26] was > 100 µM (inactive) and the GI50 [27] was > 100 µM (inactive). For the same compound, the GI50 [28] was > 100 µM (inactive), the GI50 [29] was > 100 µM (inactive) and the GI50 [30] was > 100 µM (inactive). The GI50 [31] was > 100 µM (inactive), the GI50 [32] was > 100 µM (inactive) and the GI50 [33] was > 100 µM (inactive). The GI50 [34] was > 100 µM (inactive), the GI50 [35] was > 100 µM (inactive) and the GI50 [36] was > 100 µM (inactive). The GI50 [37] was > 100 µM (inactive), the GI50 [38] was > 100 µM (inactive) and the GI50 [39] was > 100 µM (inactive). The GI50 [40] was > 100 µM (inactive), the GI50 [41] was > 100 µM (inactive) and the GI50 [42] was > 100 µM (inactive). For the same compound, the GI50 [43] was > 100 µM (inactive), the GI50 [44] was > 100 µM (inactive) and the GI50 [45] was > 100 µM (inactive). For the same compound, the GI50 [46] was > 100 µM (inactive), the GI50 [47] was > 100 µM (inactive) and the GI50 [48] was > 100 µM (inactive). The GI50 [49] was > 100 µM (inactive), the GI50 [50] was > 100 µM (inactive) and the GI50 [51] was > 100 µM (inactive). For the same compound, the GI50 [52] was > 100 µM (inactive), the GI50 [53] was > 100 µM (inactive) and the GI50 [54] was > 100 µM (inactive). The GI50 [55] was > 100 µM (inactive), the GI50 [56] was > 100 µM (inactive) and the GI50 [57] was > 100 µM (inactive). The GI50 [58] was > 100 µM (inactive) and the GI50 [59] was > 100 µM.
